From patent publication US5827073A, “Photoreactive peptide derivatives” (Ludwig Institute for Cancer Research, priority 1995, dated 1998)
“Also recorded” adds a separate entry of the source. Where no end group is shown, it is not given here. [ ]: non-standard residue; d: D form. IASA = not defined here; Dap = NC[C@H](N)C(=O)O

Assays:
Format in all cases: binding, human
HLA class I molecules [1] = assay: Photoaffinity labelling of a panel of cell lines expressing different HLA class I molecules; details: COS-7 transfectant
HLA class I molecules [2] = assay: as above; details: for photoaffinity labelling of 45 kDa HLA heavy chain on LG2-EBV cells: lane 11
Protocol: (§1) All photoaffinity labelling procedures were performed essentially as described by Luescher et al., J. Immunol., 148:1003-011 (1992); Luescher et al., Nature, 351:72-74 (1991); Romero et al., J. Exp. Med., 177:1247-1256 (1993); Luescher et al., J. Biol. Chem., 269:5574-5592 (1994); and Romero et al., J. Immunol. Methods, 171:73-84 (1994). Briefly, HLA-A1 transfected C1R cells, cultured in hygromycin containing medium, or other cell types were resuspended in DMEM medium supplemented with 0.5% fetal calf serum, 10 mM HEPES and 0.25 μg/ml human β2-microglobulin, or as specified, at 6 ×10^6 cells/ml. One ml aliquotes were incubated in 6-well plates with 20 ×10^6 cpm of peptide derivative at 26° C. for 4 hours or as specified.
(§2) After UV irradiation with a 15 W mercury fluorescence lamp with an emission maximum at 365 nm and a band width of 80 nm for 4 minutes at a lamp-sample distance of 2 cm, the cells were washed 4 times with DMEM containing 2% calf serum and 1 time with PBS. The washed cells were lysed and boiled in reducing sample buffer supplemented with MgCl2 and subjected to SDS-PAGE. Alternatively the UV irradiated samples were lysed with NP-40 detergent (0.7%) on ice in the presence of HEPES (50 mM), leupeptin (10 μg/ml), PMSF (0.1 mM), and iodoacetamide (10 MM). Immunoprecipitation of HLA molecules with immobilized W6/32 mAb (Brodsky et al., J. Immunol., 128:129-135 (1982) and SDS-PAGE analysis of the immunoprecipitate were performed as described by Luescher et al., Electrophoresis, 8:508 (1987). The gels were evaluated by autoradiography and in some experiments by densitometry as described by Luescher et al., J. Immunol., 148:1003-1011 (1992). Each labelling experiment was performed at least twice.
The first 9 were HLA homozygous EBV transformed cells lines that have been described at the 10th International Histocompatibility Workshop (DuPont, Immunobiology of HLA, New York, Springer-Verlag, Vol. 1 (1987)). Workshop numbers are indicated as "ws#", and their HLA-C expression has been determined by PCR (Levine et al., Tissue Antigens, 44:174 (1994)). The heterozygous EBV transformed cell lines were derived from HLA-typed individuals. In the case of HLA-C, the serological typing was incomplete, as indicated by question marks. The remaining cell line was COS-7 cell transfected with HLA-Cw*1601. These cells were subjected to the same labelling procedure as described for FIG. 4B.

HLA-A1 [3] = assay: HLA-A1 photoaffinity labelling of HLA-A1 transfected C1R cells with radioiodinated peptide derivative; details: β2-microglobulin, 26° C., UV irradiation, SDS-PAGE
Protocol: as §1, §2
To perform competition assays, ^51 Cr labelled C1R HLA-A1 transfected cells were incubated in the presence of a suboptimal concentration of the MAGE-3 peptide 168-176 with cloned HLA-A1-restricted MAGE-3-specific CTL 20/38. […] Alternatively, the radioiodinated peptide derivatives were incubated with HLA-A1 transfected C1R cells and following UV irradiation, the lysates of the washed cells were analyzed by SDS-PAGE (10%, reducing conditions).
Following incubation of these cells with the radioiodinated peptide derivatives and UV irradiation, cell lysates were analyzed by SDS-PAGE (FIG. 4B).

HLA-A1 [4] = assay: Dissociation of HLA-A1 peptide derivative complexes on C1R/A1 cells; details: physiological conditions (37° C., no exogenous β2-microglobulin), after 6 hours
Protocol: FIG. 3 is comprised of FIG. 3A, FIG. 3B and FIG. 3C. FIG. 3A represents SDS-PAGE analysis of EADPTGDap(IASA)SY incubated with C1R/A1 cells or WT51 cells in the presence of β2-microglobulin. FIG. 3B represents SDS-PAGE where incubation was performed at 37° C. or 26° C. in the absence of presence of β2-microglobulin, and the autoradiograms were evaluated by densitometry.
This considerable increase is mainly accounted for by an accordingly less efficient peptide binding under physiological conditions (i.e., 37° C. and no exogenous β2-microglobulin) . Another difference between the human and murine system is the difference in the stability of MHC class 1-peptide complexes. On C1R/A1 cells, the dissociation of HLA-A1 peptide derivative complexes under physiological conditions was remarkably slow, and even after 6 hours of incubation less than 20% dissociation took place (FIG. 3C). Similarly slow dissociations have been reported for other HLA class I molecules (DiBrino et al., J. Immunol., 152:620-631 (1994); Tsomides et al., Proc. Natl. Acad. Sci. USA, 88:11276 (1991)). In contrast, in the murine system, i.e., the Kd, Db of Ld system, under these conditions rapid dissociations with halftimes in the range of one hour have been reported (Luescher et al., Nature, 351:72-74 (1991); Luescher et al., J. Biol. Chem., 269:5574-5582 (1994); Romero et al., 1994, supra).

HLA-A29 = assay: Inhibition of HLA-A29 photoaffinity labelling on 807-02 cells by competitor peptides; details: for inhibition of HLA-A29 photoaffinity labelling (HLA-A29 competitor activity / binding): 20-fold molar excess of competitor, FIG. 6B
Protocol: as §1, §2
After UV irradiation, the cells were lysed and the immunoprecipitated HLA molecules were analyzed by SDS-PAGE and the resulting autoradiograms were evaluated by densitometry. All experiments were performed at least in triplicate. Hundred percent labelling refers to the labelling observed in the absence of a competitor peptide (FIG. 6A).

HLA-A1 [5] = assay: Inhibition of HLA-A1 photoaffinity labelling on C1R/A1 cells by competitor peptides; details: for binding of MAGE-3 peptide variants to HLA-A1: single alanine substitutions, method not stated
[6] = labelling with Dap(IASA)-ADPTGHSY on C1R HLA-A1 transfectants, 100-fold molar excess of competitor, densitometry

Dap(IASA)-ADPTGHSY ([Dap](IASA)ADPTGHSY; reading uncertain)
HLA labelling on COS-7 cells transfected with HLA-A1 (HLA class I molecules [1]): displayed HLA labelling | HLA labelling on COS-7 cells transfected with HLA-A29 (HLA class I molecules [1]): displayed HLA labelling | HLA labelling on 806-04 cells (HLA class I molecules [2]; 806-04 (HLA-A29+)): similarly efficient HLA labelling | photoaffinity labelling of 45 kDa HLA heavy chain on 807-02 cells (HLA class I molecules [2]; 807-02 (HLA-A29+), lane 15): significant photoaffinity labelling; also recorded: similarly efficient HLA labelling | photoaffinity labelling of 45 kDa HLA heavy chain on BM21 cells (HLA class I molecules [2]; EBV transformed line BM21 (HLA-A1), lane 1): significant photoaffinity labelling | photoaffinity labelling of 45 kDa HLA heavy chain on MOU cells (HLA class I molecules [2]; EBV transformed line MOU (HLA-A*2902, HLA-B*4403), lane 4): significant photoaffinity labelling | photoaffinity labelling of 45 kDa HLA heavy chain on LG2-EBV cells (HLA class I molecules [2]): significant photoaffinity labelling | photoaffinity labelling of 45 kDa HLA heavy chain on LG2-EBV cells (HLA class I molecules [2]; listed as SEQ ID NO: 8): weak labelling | photoaffinity labelling of 45 kDa material on the other lines tested (HLA class I molecules [2]; lanes 2, 3, 5-10, 12-14): not detectable | HLA-A1 photoaffinity labelling (45 kDa HLA-A1 heavy chain) (HLA-A1 [3]): efficiently bound to and photoaffinity labelled HLA-A1 | HLA-A1 photoaffinity labelling (45 kDa HLA-A1 heavy chain) (HLA-A1 [3]; listed as derivative containing Dap(IASA) in position 1): efficiently labelled

Glu Ala Asp Pro Thr Gly Dap(IASA) Ser Tyr (EADPTG[Dap](IASA)SY; reading uncertain; also: radioiodinated, printed as Glu Ala Asp Pro Thr Gly Dap(IASA) Ser Tyr) [SEQ ID NO: 1]
HLA labelling on eight other EBV cell lines (HLA class I molecules [2]; eight other EBV cell lines expressing different HLA-A, B and C molecules): Equally negative | HLA labelling on TEM cells (HLA class I molecules [2]; homozygous EBV transformed line TEM, HLA-A26, B-38): No detectable HLA labelling | HLA labelling on WT51 cells (HLA class I molecules [2]; homozygous EBV transformed line WT51, HLA-A23, B65): No detectable HLA labelling | dissociation of HLA-A1 peptide derivative complexes (HLA-A1 [4]): less than 20% | HLA-A1 photoaffinity labelling (45 kDa HLA-A1 heavy chain) (HLA-A1 [3]): corresponds to the HLA-A1 heavy chain | HLA-A1 photoaffinity labelling (45 kDa HLA-A1 heavy chain) (HLA-A1 [3]; listed as derivative containing Dap(IASA) in position 7): efficiently labelled

MAGE-3 variant Tyr-176 replaced with phenylalanine: MAGE-3 peptide 168-176 with C-terminal tyrosine replaced by phenylalanine (EVDPIGHLF; UniProt P43357 168-176, looked up, variant Y176F)
inhibition of HLA-A29 photoaffinity labelling (HLA-A29 competitor activity / binding) (HLA-A29): largely preserved the HLA-A29 competitor activity; also recorded: considerably diminishes binding

MAGE-3 variant alanine substitution of Asp-170: MAGE-3 peptide 168-176 with Asp-170 replaced by alanine (EVAPIGHLY; UniProt P43357 168-176, looked up, variant D170A)
binding of MAGE-3 peptide variants to HLA-A1 (HLA-A1 [5]): substantially impaired its binding

MAGE-3 variant alanine substitution of Ile-172: MAGE-3 peptide 168-176 with Ile-172 replaced by alanine (EVDPAGHLY; UniProt P43357 168-176, looked up, variant I172A)
inhibition of HLA-A29 photoaffinity labelling (HLA-A29 competitor activity / binding) (HLA-A29): markedly reduced the binding

MAGE-3 variant alanine substitution of Val-169: MAGE-3 peptide 168-176 with Val-169 (position 2) replaced by alanine (EADPIGHLY; UniProt P43357 168-176, looked up, variant V169A)
inhibition of HLA-A29 photoaffinity labelling (HLA-A29 competitor activity / binding) (HLA-A29): to a lesser degree | inhibition of HLA-A29 photoaffinity labelling (HLA-A29 competitor activity / binding) (HLA-A29; listed as MAGE-3 variant substitution in position 2 with alanine): impaired

MAGE-3 variant containing Ala in position 9: MAGE-3 peptide 168-176 with Tyr-176 replaced by alanine (EVDPIGHLA; UniProt P43357 168-176, looked up, variant Y176A)
binding of MAGE-3 peptide variants to HLA-A1 (HLA-A1 [5]): substantially impaired its binding | inhibition of HLA-A29 photoaffinity labelling (HLA-A29 competitor activity / binding) (HLA-A29): 13%

MAGE-3 variant substitution in position 2 with isoleucine: MAGE-3 peptide 168-176 with position 2 replaced by isoleucine (EIDPIGHLY; UniProt P43357 168-176, looked up, variant V169I)
inhibition of HLA-A29 photoaffinity labelling (HLA-A29 competitor activity / binding) (HLA-A29): increased

MAGE-3 variant substitution in position 2 with phenylalanine: MAGE-3 peptide 168-176 with position 2 replaced by phenylalanine (EFDPIGHLY; UniProt P43357 168-176, looked up, variant V169F)
inhibition of HLA-A29 photoaffinity labelling (HLA-A29 competitor activity / binding) (HLA-A29): increased

MAGE-3: HLA-A1 restricted MAGE-3 peptide 168-176
inhibition of HLA-A1 photoaffinity labelling (HLA-A1 [5]; [6]): about 98% | inhibition of HLA-A1 photoaffinity labelling (HLA-A1 [5]; labelling with SEQ ID NO: 1 on C1R/A1 cells, 300 fold molar excess of competitor): completely inhibited | inhibition of HLA-A29 photoaffinity labelling (HLA-A29 competitor activity / binding) (HLA-A29): approximately 80%

tyrosinase peptide 368-376: HLA-A2-restricted tyrosinase peptide 368-376 (IYMNGTMSQ; UniProt P14679 368-376, looked up, fragment) [reference compound]
inhibition of HLA-A1 photoaffinity labelling (HLA-A1 [5]; [6]): No significant inhibition | inhibition of HLA-A29 photoaffinity labelling (HLA-A29; labelling with Dap(IASA)-ADPTGHSY on 807-02 cells, 100-fold molar excess of competitor, densitometry): no detectable inhibition
